In brackets after ≈: the same amount, converted by molar mass.
Tests used:
[1] = system: Mouse colon cancer cells (colon-26); test: Anticancer effect on solid cancer, colon-26 transplanted subcutaneously to CDFI mice; format: in vivo; conditions: cisplatin 5 mg/kg on 7th, 11th and 15th day
Experimental: Mouse colon cancer cells (colon-26) subcultured in vivo subcutaneously in a CDFI mouse were excised from the subcutaneous portion of the mouse. The cells were minced and transplanted subcutaneously with a trocar to CDFI mice (female, 4 weeks old) so that the concentration was 10 mg/mouse. The day of the transplantation was designated as 0th day. On 7th day, the tumor size and the body weight were measured, and the mice were classified into groups with n=4. The tumor size was calculated as a tumor weight in accordance with the following arithmetic expression. [formula]
FE399 which was obtained by drying up the acetonitrile solution of FE399-1 isolated by the method described in Example 1 under a reduced precondition was administered to the mice described above in accordance with the following schedule. FE399 was administered intraperitoneally in an administration amount of 0.2 mL/mouse. FE399 was dissolved in dimethyl sulfoxide (DMSO) so that the concentration was 100 mg/ml. The concentration was adjusted with physiological saline containing 5% Tween 80 so that the administration amount was 4 mg/kg or 8 mg/kg. […]
The anticancer effect was evaluated on the basis of the tumor enhancement inhibitory ratio (IR) calculated from the tumor weight. IR was determined in accordance with the following arithmetic expression. […]

[2] = system: Colon26; test: Growth-inhibiting action on various cells (MTT), Colon26; format: cell-based; conditions: Colon 26, 72 h, Colon26, mouse colon cancer, 5 × 10^4 cells/ml, 3 days, read-out: IC50 (concentration at which cell proliferation is inhibited by 50%)
Experimental: (§1) The proliferation-inhibiting action of FE399 compounds obtained by purification, on various cells was measured under a condition shown below.
(§2) After that, FE399-P1 or FE399-P2 was added thereto at an appropriate concentration, followed by further cultivation for 3 days. However, as for P388 and K562, the FE399 compound group was added immediately after preparation of cell culture liquids. Each of the cultures was added with 10 μl of a solution of MTT (3-(4,5-dimethyl-2-thiazolyl)-2,5-diphenyl-2H-tetrazolium.Br, 5 mg/ml Dulbecco PBS(-)), followed by cultivation at 37° C. for 4 hours in the carbon dioxide gas incubator. After that, each of the cultures was added with 50 μl of 0.01N hydrochloric acid/20% SDS, and then the absorbance was measured at 570 nm by using a microplate reader (reference wavelength: 630 nm).

[3] = system: SW948; test: Growth-inhibiting action on various cells (MTT), SW948; format: cell-based; conditions: 72 h, SW948, human colon cancer, 5 × 10^4 cells/ml, 3 days, read-out: IC50 (concentration at which cell proliferation is inhibited by 50%)
Experimental: as §1, §2

[4] = Stability of the tautomers; format: physicochemical; conditions: tautomeric equilibrium in organic solvent such as acetonitrile, chloroform, acetic acid
[5] = system: P388; test: Growth-inhibiting action on various cells (MTT), P388; format: cell-based; conditions: 72 h, P388, mouse leukemia, 2 × 10^4 cells/ml, 3 days, read-out: IC50 (concentration at which cell proliferation is inhibited by 50%)
Experimental: as §1, §2

[6] = Solubility; format: physicochemical
[7] = system: K562T; test: Growth-inhibiting action on various cells (MTT), K562T; format: cell-based; conditions: 72 h, human leukemia, 4 × 10^4 cells/ml, 3 days, read-out: IC50 (concentration at which cell proliferation is inhibited by 50%)
Experimental: as §1, §2

[8] = system: CHO-K1; test: Growth-inhibiting action on various cells (MTT), CHO-K1; format: cell-based; conditions: Cricetulus griseus, 72 h, CHO-K1, Chinese hamster ovary fibroblast, 1.5 × 10^4 cells/ml, 3 days, read-out: IC50 (concentration at which cell proliferation is inhibited by 50%)
Experimental: as §1, §2

IC50 [3] [µg/mL] | Stability among the group of the compounds [4] | IC50 [5] [µg/mL] | Solubility ([6]; in dimethyl sulfoxide, chloroform, ethyl acetate, methanol, and acetonitrile) | Solubility ([6]; in pyridine and acetic acid) | Solubility ([6]; in water) | IC50 [7] [µg/mL] | Structure (SMILES) | IR (tumor enhancement inhibitory ratio) ([1]; 15th day) | IR (tumor enhancement inhibitory ratio) ([1]; 21st day) | IC50 [2] [µg/mL] | IC50 [8] [µg/mL]
 |  |  |  |  |  |  | N.N.[Cl][Pt][Cl] [cisplatin] | 63 | 73 |  | 
0.15 (≈ 0.373 µM) | relatively stable | 0.36 (≈ 0.894 µM) | soluble | readily soluble | scarcely soluble | 0.31 (≈ 0.77 µM) | CCCC1CCCCCCCC(=O)NC2CSSCC(NC2=O)C(=O)O1 (centres unmarked) [FE399-P1] |  |  | 0.4 (≈ 0.994 µM) | 0.3 (≈ 0.745 µM)

Reference: US5843755A, “Group of antitumor compounds and method for producing the same” (Ajinomoto Co., Inc., priority 1996, dated 1998)
